Reference: patent US7737256B2, “Antibody against uPA/uPAR” (Fondazione Centro San Raffaele Del Monte Tabor, priority 2001, dated 2010)

Legend:
[1] = test system: THP-1 cells; test: chemotaxis of THP-1 cells (modified Boyden chambers); assay type: cell-based, human
Description: (§1) Chemotaxis assays were performed as described (Degryse, 1999) with modified Boyden chambers using filters (5 μm pore size, Corning) treated with collagen I (100 μg/ml) and fibronectin (10 μg/ml, Boehringer Mannheim). 20,000-40,000 cells in serum-free DMEM were added to the upper well while the chemoattractants were added to the lower well. When present, antibodies or desensitizing molecules were pre-incubated with the cells for one hour and were then added to both wells of Boyden chambers during the chemotaxis assay. Migration lasted for […] in the case of THP-1 cells and 4-6 hours for the HEK293 or HEK293/FPRL1 cells. After migration at 37° C., cells remaining on the upper surface of filters were scraped off, the filters were fixed in methanol and stained in a solution of 10% (w/v) crystal violet in 20% (v/v) methanol. The experiments were performed in triplicate and the results presented represent the mean ±SD of the number of cells counted in ten high power fields per filter and are representative of at least three experiments. Random cell migration, i. e. migration in the absence of chemoattractant, was given the arbitrary value of 100%.

[2] = test system: HIV-1 in U1 cells; test: PMA-induced HIV-1 reactivation in U1 cells (RT activity); assay type: cell-based
Description: Cell Lines p U1 cells were stimulated at the density of 2×10^5 cells per ml in RPMI 1640 (Whittaker M. A. Bioproducts, Walkerville, Md.) containing 10% FCS. Cells were preincubated with uPA, uPAR, suPA, R2, R3, R4, R5 antibodies for 20 min at 37° C. prior to addition of stimuli. U1 parental cell line U937 was used as a control in the transfection experiments. U937 cells were purchased from ATCC and maintained in RPMI 1640 medium in the presence of FCS before and after infection with the X4 HIV-1LAI/IIIB. For infection, cells were seeded at 2×10^5 cells/ml in 96-well flat bottomed plates (Falcon, Becton-Dickinson Labware, Lincoln Park, N.J.) and infected with 1−2×10^7 virus particles diluted from a stock of pelleted virus (Advanced Biotechnology, Inc., Columbia, Md.). After infection, 2 h at 37° C., cells were washed and resuspended in RPMI 1640 medium.
Viral expression was monitored by determination of Mg^2+-dependent Reverse Trascriptase (RT) activity in culture supernatants (Poli, 1990). In particular, 5 microliters of supernatants was added to 25 microliters of a mixture containing poly(A), oligo(dT) (Pharmacia Fine Chemicals, Piscataway, N.J.), MgC12, and 32P-labeled deoxythymidine 5′-triphosphate (dTTP) (Amersham Corp., Arlington Heights, Ill.), and incubated for 2 h at 37°°C. 6 microliters of the mixture was spotted onto DE81 paper, air dried, washed five times in 2× SSC buffer, and two additional times in 95% ethanol. The paper was then dried and counted on a scintillation counter (LS 5000, Beckman Instruments, Inc., Fullerton, Calif.).
For all experiments, culture supernatants were collected every day for five days, in the case of cell line, or every three days for infection of U937 and primary cells. Reagents were replenished every time culture medium was changed. Data representative of one out of three independent experiments are shown. Results are presented as means of triplicate cultures, and the error bar show the standard deviation from the mean.

[3] = test system: HEK293 cells; test: chemotaxis of HEK293 cells; assay type: cell-based, human; settings: untransfected HEK293, FIG. 10
Description: (§2) The THP-1 cells used in the present example have been previously described (Resnati, 1996). Human HEK293 cells were kindly donated by Dr. Hal Chapman and human HEK293/FPRL1 from Dr. J. M. Wang. […] HEK293/FPRL1 cells have been generated by transfection of FPRL1 cDNA in HEK293 cells (Murphy, 1996).
as §1, with “Random cell migration, i. e. migration in the absence of chemoattractant, was given the arbitrary value of 100%.” left out

[4] = chemotaxis-promotion by uPAR peptides (data not shown); assay type: cell-based
[5] = target: FPRL1/LXA4R, seven trans-membrane G-protein-coupled receptor (human) (UniProt P25090); test: cell-based or functional assay
Chain of UniProt P25090 (P25090 whole entry): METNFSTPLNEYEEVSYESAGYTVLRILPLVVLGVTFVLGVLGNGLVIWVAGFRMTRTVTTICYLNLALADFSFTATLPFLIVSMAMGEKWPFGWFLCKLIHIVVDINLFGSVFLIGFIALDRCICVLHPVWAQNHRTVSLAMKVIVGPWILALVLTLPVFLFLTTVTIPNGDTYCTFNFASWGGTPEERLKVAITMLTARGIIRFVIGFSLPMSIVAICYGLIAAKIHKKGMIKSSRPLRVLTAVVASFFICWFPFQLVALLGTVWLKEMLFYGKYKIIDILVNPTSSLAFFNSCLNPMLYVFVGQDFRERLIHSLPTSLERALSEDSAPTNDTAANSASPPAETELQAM

[6] = test system: HEK293/FPRL1 cells; test: chemotaxis of HEK293 transfected with FPRL1/LXA4R; assay type: cell-based, human; settings: FIG. 10
Description: as §2
as §1, with “Random cell migration, i. e. migration in the absence of chemoattractant, was given the arbitrary value of 100%.” left out

[7] = test system: Human peripheral blood monocytes; test: chemotaxis of peripheral blood monocytes; assay type: cell-based; settings: fresh human monocytes, FIG. 13
Description: as §1
THP-1 cells have been described before (Resnati, 1996). […] The purity of the separated populations was determined by flow cytometry analyses with anti-CD14 monoclonal antibodies.

With `CSCC[C@H](NC=O)C(=O)N[C@@H](CC(C)C)C(=O)N[C@@H](Cc1ccccc1)C(=O)O` [fMLP, formyl-methionyl-leucyl-phenylalanine] the “de-sensitization against D2D388-279 and ATF” value ([1]; 20 μM) was “de-sensitized”, the “effect on MCP-1 chemotaxis (de-sensitization)” value ([1]; THP-1 cells, FIG. 9B) was “did not affect” and the IC50 ([1]; THP-1 cells, FIG. 9B, read-out: concentration inhibiting D2D388-279 chemotaxis by 50% (de-sensitization)) was 10 to 20 µM. For the same molecule, the “effect on MCP-1 chemotaxis (de-sensitization)” value ([1]; THP-1 cells, very high concentrations (200 μM)) was “marginally”.
In the case of “ATF: amino terminal fragment of uPA with full receptor-binding and no enzymatic activity”, the “effect on PMA-induced HIV-1 expression” value ([2]; PMA 10 nM, FIG. 2) is reported as “fully reproduces the pro-uPA effect”, the “chemotactic response of the cells” value [3] is reported as “do not respond” and the induction of chemotaxis ([1]; THP-1 cells) is reported as “induce chemotaxis”.
For AVTYSRSRYLEC (listed as Homo sapiens), the chemotaxis-promotion [4] was “active” and the “chemotaxis-promotion after cleavage with plasmin” value ([4]; peptide cleaved with plasmin, data not shown) was “destroyed the activity”.
“D2D388-278, D2D3 fragment obtained by cleavage of suPAR with chymotrypsin (from UniProt Q03405 110-300) (receptor)” showed a chemotaxis of HEK293 cells transfected with FPRL1/LXA4R [5] of 0.1 nM.
In the case of “D2D388-279: chymotrypsin-cleaved, soluble, purified form of uPAR endowed with potent chemotactic activity”, the “chemotactic response of the cells” value [6] is reported as “respond well”, the “concentration of maximum chemotactic response” value [6] is reported as “about 0.1 nM” and the induction of chemotaxis [7] is reported as “induce chemotaxis”. For the same molecule, the “chemotactic response of the cells” value [3] was “do not respond”.
In the case of “MCP-1: monocytes chemotactic protein-1 [reference compound]”, the induction of chemotaxis [7] is reported as “induce chemotaxis” and the induction of chemotaxis ([1]; THP-1 cells) is reported as “induce chemotaxis”.
In the case of SRSRY (listed as Homo sapiens), the chemotaxis-promotion [4] is reported as “active”.
In the case of TGF-β [reference compound], the “inhibition of PMA-induced HIV-1 replication/expression” value ([2]; pro-uPA 10 nM, TGF-beta 5 ng/ml, alone or combined, FIG. 4C) is reported as 60%.
With “suPAR: recombinant soluble uPAR which specifically binds pro-uPA” the “effect on the inhibition of PMA-induced HIV-1 expression by pro-uPA” value ([2]; with pro-uPA, FIG. 2D, FIG. 3) was “blocked”.
